A word on the IC50: it is the point on the concentration scale where inhibition reaches its midpoint.

The target in the assay is T1, P2X7 receptor (Homo sapiens, UniProt Q99572).
T1 construct: host or cells: SH-SY5Y
T1 sequence (Q99572 1-595): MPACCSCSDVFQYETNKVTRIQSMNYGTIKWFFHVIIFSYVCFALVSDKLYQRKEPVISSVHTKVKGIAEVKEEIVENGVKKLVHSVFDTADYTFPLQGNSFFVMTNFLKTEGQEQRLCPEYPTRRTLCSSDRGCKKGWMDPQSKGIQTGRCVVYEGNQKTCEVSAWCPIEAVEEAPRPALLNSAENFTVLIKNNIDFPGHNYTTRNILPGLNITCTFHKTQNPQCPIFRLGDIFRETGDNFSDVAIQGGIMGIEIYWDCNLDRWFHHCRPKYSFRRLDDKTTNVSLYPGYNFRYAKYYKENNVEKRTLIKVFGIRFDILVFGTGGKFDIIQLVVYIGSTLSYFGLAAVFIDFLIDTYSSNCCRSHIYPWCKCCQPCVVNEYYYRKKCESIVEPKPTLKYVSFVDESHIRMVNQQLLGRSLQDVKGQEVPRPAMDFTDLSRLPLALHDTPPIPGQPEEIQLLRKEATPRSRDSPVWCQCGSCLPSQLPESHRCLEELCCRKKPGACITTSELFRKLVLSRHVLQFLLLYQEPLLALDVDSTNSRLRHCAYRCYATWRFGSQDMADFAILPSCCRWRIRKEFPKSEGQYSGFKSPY
Nature of the assay: P2X7 calcium mobilization assay, high throughput, antagonist activity (Example 4A). The assay is classed as cell-based. The settings on record: 50% decrease in the fluorescence response of cells exposed to 80 μM of 2′(3′)-O-(4-benzoyl-benzoyl)adenosine 5′-triphosphate; Example 4A; read-out: IC50. The procedure, abridged: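 Cells plated at 100,000/well the day before were dye-loaded for 1 h, then incubated 1 h at room temperature with test compound before agonist-triggered calcium mobilization was read on FLIPR Tetra. Maximum RFU was corrected by subtracting the no-agonist control and related to the agonist-control response.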

With `N[C@@H]1CCN(Cc2cn3c(C(=O)NCC(CC4CCCCC4)c4ccccc4)cccc3n2)C1` (stereo partly shown) [Compound 787, 2-[(3-aminopyrrolidin-1-yl)methyl]-N-(3-cyclohexyl-2-phenylpropyl) imidazo[1,2-a] pyridine-5-carboxamide], the IC50 is < 2000 nM.

As to `CC(C)(C)OC(=O)Nc1cn2c(C(=O)NCC34CC5CC(CC(C5)C3)C4)cccc2n1` [Compound 788, tert-butyl {5-[(adamantan-1-ylmethyl)carbamoyl]imidazo[1,2-a]pyridin-2-yl}carbamate], the half-inhibitory concentration (IC50) was < 2000 nM.

Regarding `CC(C)CC(CNC(=O)c1cccc2nc(CC(=O)N3CCCC(N(C)C)C3)cn12)c1ccccc1` (stereo not shown) [Compound 789, 2-{2-[3-(dimethylamino)piperidin-1-yl]-2-oxoethyl}-N-(4-methyl-2-phenylpentyl) imidazo[1,2-a] pyridine-5-carboxamide], the concentration for half-maximal inhibition (IC50) is < 2000 nM.

For `CN(C)C1CCCN(C(=O)Cc2cn3c(C(=O)NC[C@H]4CCC5CC4C5(C)C)cccc3n2)C1` (stereo partly drawn) [Compound 790, 2-{2-[3-(dimethylamino)piperidin-1-yl]-2-oxoethyl}-N-{[(2S)-6,6-dimethylbicyclo [3.1.1]hept-2-yl]methyl}imidazo [1,2-a]pyridine-5-carboxamide], the IC50 is < 2000 nM.

As to `CC1(C)C2CC[C@H](CNC(=O)c3cccc4nc(CC(=O)NC5CCCC5)cn34)C1C2` (stereo partly drawn) [Compound 791, 2-[2-(cyclopentylamino)-2-oxoethyl]-N-{[(2S)-6,6-dimethylbicyclo [3.1.1]hept-2-yl]methyl}imidazo [1,2-a]pyridine-5-carboxamide], the IC50 was < 2000 nM.

For `CC(C)CC(CNC(=O)c1cccc2nc(CC(=O)N3CCCC(N(C)C)C3)cn12)c1ccc(Cl)cc1` (stereo not shown) [Compound 792, N-[2-(4-chlorophenyl)-4-methylpentyl]-2-{2-[3-(dimethylamino)piperidin-1-yl]-2-oxoethyl} imidazo[1,2-a] pyridine-5-carboxamide], the concentration for half-maximal inhibition (IC50) was < 2000 nM.

For the molecule `CC1(C)C2CC[C@H](CNC(=O)c3cccc4nc(CC(=O)NCC(F)(F)F)cn34)C1C2` (stereo partly drawn) [Compound 793, N-{[(2S)-6,6-dimethylbicyclo [3.1.1]hept-2-yl]methyl}-2-{2-oxo-2-[(2,2,2-trifluoroethyl)amino]ethyl}imidazo [1,2-a]pyridine-5-carboxamide], the half-maximal inhibitory concentration (IC50) was < 2000 nM.

With `CC(C)CC(CNC(=O)c1cccc2nc(CC(=O)NC3CCCC3)cn12)c1ccc(Cl)cc1` (stereo not shown) [Compound 794, N-[2-(4-chlorophenyl)-4-methylpentyl]-2-[2-(cyclopentylamino)-2-oxoethyl]imidazo [1,2-a]pyridine-5-carboxamide], the half-inhibitory concentration (IC50) is < 2000 nM.

For the molecule `CC1(C)C2CC[C@H](CNC(=O)c3cccc4nc(CC(=O)N5CCSCC5)cn34)C1C2` (stereo partly drawn) [Compound 795, N-{[(2S)-6,6-dimethylbicyclo[3.1.1]hept-2-yl]methyl}-2-(2-oxo-2-thiomorpholin-4-ylethyl)imidazo[1,2-a] pyridine-5-carboxamide], the IC50 was < 2000 nM.

Consider `CC(C)CC(CNC(=O)c1cccc2nc(CC(=O)NCC(F)(F)F)cn12)c1ccc(Cl)cc1` (stereo not shown) [Compound 796, N-[2-(4-chlorophenyl)-4-methylpentyl]-2-{2-oxo-2-[(2,2,2-trifluoroethyl)amino]ethyl} imidazo[1,2-a] pyridine-5-carboxamide], for which the concentration for half-maximal inhibition (IC50) is < 2000 nM.

With `CC(C)CC(CNC(=O)c1cccc2nc(CC(=O)N3CCSCC3)cn12)c1ccccc1` (stereo not shown) [Compound 797, N-(4-methyl-2-phenylpentyl)-2-(2-oxo-2-thiomorpholin-4-ylethyl)imidazo [1,2-a]pyridine-5-carboxamide], the IC50 was < 2000 nM.

On to `CC(C)CC(CNC(=O)c1cccc2nc(CC(=O)N3CCSCC3)cn12)c1ccc(Cl)cc1` (stereo not shown) [Compound 798, N-[2-(4-chlorophenyl)-4-methylpentyl]-2-(2-oxo-2-thiomorpholin-4-ylethyl)imidazo[1,2-a] pyridine-5-carboxamide], for which the half-maximal inhibitory concentration (IC50) is < 2000 nM.

`CCOC(=O)C(Cc1ccc(Cl)cc1)c1cn2c(C(=O)NCC34CC5CC(CC(C5)C3)C4)cccc2n1` (stereo not shown) [Compound 800, ethyl 2-{5-[(adamantan-1-ylmethyl)carbamoyl]imidazo[1,2-a]pyridin-2-yl}-3-(4-chlorophenyl) propanoate]: the IC50 was < 2000 nM.

On to `CCOC(=O)C(Cc1ccc(OC)cc1)c1cn2c(C(=O)NCC34CC5CC(CC(C5)C3)C4)cccc2n1` (stereo not shown) [Compound 801, ethyl 2-{5-[(adamantan-1-ylmethyl)carbamoyl]imidazo[1,2-a]pyridin-2-yl}-3-(4-methoxyphenyl) propanoate], for which the half-inhibitory concentration (IC50) is < 2000 nM.

`CCOC(=O)C(CC(=O)N1CCOCC1)c1cn2c(C(=O)NCC34CC5CC(CC(C5)C3)C4)cccc2n1` (stereo not shown) [Compound 802, ethyl 2-{5-[(adamantan-1-ylmethyl)carbamoyl]imidazo[1,2-a]pyridin-2-yl}-4-morpholin-4-yl-4-oxobutanoate]: the IC50 was < 2000 nM.

In the case of `O=C(NCC12CC3CC(CC(C3)C1)C2)c1cccc2nc(C(CC(=O)N3CCOCC3)C(=O)O)cn12` (stereo not shown) [Compound 803, 2-{5-[(adamantan-1-ylmethyl)carbamoyl]imidazo[1,2-a]pyridin-2-yl}-4-morpholin-4-yl-4-oxobutanoic acid], the 50% inhibitory concentration (IC50) is < 2000 nM.

Consider `O=C(NCC12CC3CC(CC(C3)C1)C2)c1cccc2nc(C(Cc3ccc(Cl)cc3)C(=O)O)cn12` (stereo not shown) [Compound 804, 2-{5-[(adamantan-1-ylmethyl)carbamoyl]imidazo[1,2-a]pyridin-2-yl}-3-(4-chlorophenyl) propanoic acid], for which the IC50 is < 2000 nM.

Consider `COc1ccc(CC(C(=O)O)c2cn3c(C(=O)NCC45CC6CC(CC(C6)C4)C5)cccc3n2)cc1` (stereo not shown) [Compound 805, 2-{5-[(adamantan-1-ylmethyl)carbamoyl]imidazo[1,2-a]pyridin-2-yl}-3-(4-methoxyphenyl) propanoic acid], for which the concentration for half-maximal inhibition (IC50) is < 2000 nM.

As for `CC(C)(C)OC(=O)C(C#N)Cc1cn2c(C(=O)NCC34CC5CC(CC(C5)C3)C4)cccc2n1` (stereo not shown) [Compound 806, tert-butyl 3-{5-[(adamantan-1-ylmethyl)carbamoyl]imidazo[1,2-a]pyridin-2-yl}-2-cyanopropanoate], the IC50 was < 2000 nM.

As for `CNC(=O)CC1(c2cn3c(C(=O)NCC45CC6CC(CC(C6)C4)C5)cccc3n2)CC(=O)N(C)C1=O` (stereo not shown) [Compound 807, N-(adamantan-1-ylmethyl)-2-{1-methyl-3-[2-(methylamino)-2-oxoethyl]-2,5-dioxopyrrolidin-3-yl}imidazo[1,2-a] pyridine-5-carboxamide], the concentration for half-maximal inhibition (IC50) was < 2000 nM.

On to `CCNC(=O)CC1(c2cn3c(C(=O)NCC45CC6CC(CC(C6)C4)C5)cccc3n2)CC(=O)N(CC)C1=O` (stereo not shown) [Compound 808, N-(adamantan-1-ylmethyl)-2-{1-ethyl-3-[2-(ethylamino)-2-oxoethyl]-2,5-dioxopyrrolidin-3-yl}imidazo[1,2-a]pyridine-5-carboxamide], for which the IC50 is < 2000 nM.

Turning to `CCOC(=O)C(CC(=O)N(C)C)c1cn2c(C(=O)NCC34CC5CC(CC(C5)C3)C4)cccc2n1` (stereo not shown) [Compound 809, ethyl 2-{5-[(adamantan-1-ylmethyl)carbamoyl]imidazo[1,2-a]pyridin-2-yl}-4-(dimethylamino)-4-oxobutanoate], the IC50 was < 2000 nM.

Source of the values: patent US8431593B2, “Heteroaryl amide derivatives” (H. Lundbeck A/S, priority 2006, dated 2013).
